Experiments:
[1] = Half life in human liver microsomes by LC-MS/MS analysis
[2] = Apparent intrinsic clearance in human liver microsomes by LC-MS/MS analysis
Cytochrome P450 1A2 = biological target: T1, Cytochrome P450 1A2 (Homo sapiens, UniProt P05177); test: Inhibition of CYP1A2 in human liver microsomes using phenacetin preincubated for 5 mins by LC-MS/MS analysis
T1 sequence (P05177 whole entry): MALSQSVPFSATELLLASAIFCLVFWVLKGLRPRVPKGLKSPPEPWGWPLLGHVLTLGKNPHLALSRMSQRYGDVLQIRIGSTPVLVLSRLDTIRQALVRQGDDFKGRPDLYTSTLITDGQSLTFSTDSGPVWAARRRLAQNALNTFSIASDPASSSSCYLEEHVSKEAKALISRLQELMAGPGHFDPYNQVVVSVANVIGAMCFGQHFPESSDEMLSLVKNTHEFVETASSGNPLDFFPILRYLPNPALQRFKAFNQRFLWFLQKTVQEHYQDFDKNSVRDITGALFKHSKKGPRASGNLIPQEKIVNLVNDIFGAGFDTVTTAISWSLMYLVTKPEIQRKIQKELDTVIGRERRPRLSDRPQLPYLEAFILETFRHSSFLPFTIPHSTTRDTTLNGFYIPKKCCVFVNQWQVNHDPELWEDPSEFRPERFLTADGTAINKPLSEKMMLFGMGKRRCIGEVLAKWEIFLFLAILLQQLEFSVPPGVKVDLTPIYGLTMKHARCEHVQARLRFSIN

Cytochrome P450 2D6 = Cytochrome P450 2D6 (Homo sapiens, UniProt P10635); test: Inhibition of CYP2D6 in human liver microsomes using dextromethorphan as substrate preincubated for 5 mins by LC-MS/MS analysis
Cytochrome P450 2C8 = biological target: T2, Cytochrome P450 2C8 (Homo sapiens, UniProt P10632); test: Inhibition of CYP2C8 in human liver microsomes using paclitaxel as substrate preincubated for 5 mins by LC-MS/MS analysis
T2 sequence (P10632 whole entry): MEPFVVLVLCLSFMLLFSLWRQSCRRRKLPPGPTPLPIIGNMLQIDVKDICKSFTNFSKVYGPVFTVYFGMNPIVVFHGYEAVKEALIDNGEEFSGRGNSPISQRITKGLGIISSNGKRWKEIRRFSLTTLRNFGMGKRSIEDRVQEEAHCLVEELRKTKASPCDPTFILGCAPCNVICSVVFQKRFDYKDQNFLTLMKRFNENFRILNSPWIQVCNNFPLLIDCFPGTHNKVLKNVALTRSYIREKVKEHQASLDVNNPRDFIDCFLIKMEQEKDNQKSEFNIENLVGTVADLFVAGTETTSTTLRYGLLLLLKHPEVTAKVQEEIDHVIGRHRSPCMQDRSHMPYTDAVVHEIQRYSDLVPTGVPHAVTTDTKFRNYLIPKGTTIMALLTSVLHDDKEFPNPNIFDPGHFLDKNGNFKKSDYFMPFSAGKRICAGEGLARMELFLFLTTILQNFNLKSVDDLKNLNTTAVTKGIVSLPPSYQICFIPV

Cytochrome P450 2B6 = biological target: T3, Cytochrome P450 2B6 (Homo sapiens, UniProt P20813); test: Inhibition of CYP2B6 in human liver microsomes using bupropion as substrate preincubated for 5 mins by LC-MS/MS analysis
T3 sequence (P20813 whole entry): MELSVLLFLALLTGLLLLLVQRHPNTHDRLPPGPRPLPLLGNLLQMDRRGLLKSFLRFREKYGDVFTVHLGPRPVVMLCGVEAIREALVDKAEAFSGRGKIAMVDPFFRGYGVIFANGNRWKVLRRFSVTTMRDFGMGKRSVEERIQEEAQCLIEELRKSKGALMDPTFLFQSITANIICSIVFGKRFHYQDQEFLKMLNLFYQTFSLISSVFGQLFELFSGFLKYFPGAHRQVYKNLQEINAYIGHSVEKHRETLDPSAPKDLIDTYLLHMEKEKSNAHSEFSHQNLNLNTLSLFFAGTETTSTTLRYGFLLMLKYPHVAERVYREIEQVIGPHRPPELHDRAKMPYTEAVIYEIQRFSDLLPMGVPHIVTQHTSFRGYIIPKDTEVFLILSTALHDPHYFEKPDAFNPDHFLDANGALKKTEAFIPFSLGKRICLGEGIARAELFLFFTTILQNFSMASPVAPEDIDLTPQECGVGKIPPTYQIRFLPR

Cytochrome P450 2E1 = Cytochrome P450 2E1 (Homo sapiens, UniProt P05181); test: Inhibition of CYP2E1 in human liver microsomes using chlorzoxazone as substrate preincubated for 5 mins by LC-MS/MS analysis
Chain of Cytochrome P450 2E1 (P05181 whole entry): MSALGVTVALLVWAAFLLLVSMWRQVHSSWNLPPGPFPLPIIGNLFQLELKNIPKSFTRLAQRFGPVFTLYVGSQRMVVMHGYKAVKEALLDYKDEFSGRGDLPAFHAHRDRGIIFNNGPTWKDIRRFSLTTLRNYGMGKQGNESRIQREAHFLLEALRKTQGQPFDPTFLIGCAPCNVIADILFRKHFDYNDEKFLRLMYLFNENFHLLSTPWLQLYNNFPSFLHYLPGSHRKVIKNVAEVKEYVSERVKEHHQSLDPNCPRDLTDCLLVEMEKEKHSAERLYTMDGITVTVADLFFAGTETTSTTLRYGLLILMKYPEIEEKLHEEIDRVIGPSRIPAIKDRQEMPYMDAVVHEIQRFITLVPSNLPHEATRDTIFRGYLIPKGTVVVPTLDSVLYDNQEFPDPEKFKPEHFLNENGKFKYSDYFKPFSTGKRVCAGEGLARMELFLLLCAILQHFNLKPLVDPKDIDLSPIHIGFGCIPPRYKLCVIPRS

Chain of Cytochrome P450 2D6 (P10635 whole entry): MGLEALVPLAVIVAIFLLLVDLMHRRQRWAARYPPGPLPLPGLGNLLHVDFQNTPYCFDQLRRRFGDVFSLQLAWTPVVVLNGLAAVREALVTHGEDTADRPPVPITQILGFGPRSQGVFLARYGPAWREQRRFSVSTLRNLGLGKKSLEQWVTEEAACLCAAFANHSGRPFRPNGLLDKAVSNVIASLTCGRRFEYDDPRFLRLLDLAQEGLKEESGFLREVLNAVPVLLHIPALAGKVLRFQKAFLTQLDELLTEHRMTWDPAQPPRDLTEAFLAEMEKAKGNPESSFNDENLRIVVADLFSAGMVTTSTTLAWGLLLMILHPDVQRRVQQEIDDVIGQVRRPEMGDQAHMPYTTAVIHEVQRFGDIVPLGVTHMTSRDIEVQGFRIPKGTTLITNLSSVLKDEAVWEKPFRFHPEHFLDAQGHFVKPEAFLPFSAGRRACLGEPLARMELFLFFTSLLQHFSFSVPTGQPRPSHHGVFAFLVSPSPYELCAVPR

Row | half-life ([1]; microsomes) [h] | microsomal CLint ([2]; microsomes) [µL/min/mg] | IC50 (Cytochrome P450 1A2) [µM] | IC50 (Cytochrome P450 2D6) [µM] | IC50 (Cytochrome P450 2C8) [µM] | half-life ([1]; liver microsomes) [h] | microsomal CLint ([2]; liver microsomes) [µL/min/mg] | IC50 (Cytochrome P450 2B6) [µM] | IC50 (Cytochrome P450 2E1) [µM] | Structure (SMILES)
1 | 0.16 | 724 | 0.93 | 1.94 | 3.12 |  |  |  |  | CCCSc1nc2ccc(OC)cc2[nH]1
2 |  |  |  |  |  | 0.134 | 860 |  |  | COc1ccc2nc(SCc3ccc(C(=O)O)cc3)[nH]c2c1
3 |  |  |  |  |  | 2 | < 57.8 | 28.8 |  | COc1ccc2[nH]c(SCCCC(=O)O)nc2c1
4 | 2 | < 57.8 |  |  | > 50 |  |  | > 50 | > 50 | COc1ccc2[nH]c(SCc3ccccc3)nc2c1
